The numbers were not newly measured in CN101129366A, “一种尼莫地平药物组合物及其制备方法” (Beijing Zhonghaikang Medical Technology Development Co Ltd, priority 2007, dated 2008), which cites them from elsewhere.

Structures are written as SMILES.

The conditions of this data set: drug substance.

Turning to `COCCOC(=O)C1=C(C)NC(C)=C(C(=O)OC(C)C)C1c1cccc([N+](=O)[O-])c1` (stereo not shown) [尼莫地平], the “solubility in acetone and chloroform” value (acetone, chloroform) is recorded as “易溶”. In addition, for the setting “ethanol”, the solubility in ethanol result was “溶解”. Moreover, the “solubility in diethyl ether” value (ether) was “微溶”. For the same compound, the solubility in water entry (water) is listed as “不溶”.
